Assay results published in publication PMC9415608, “Design, Synthesis and Biological Investigation of 2-Anilino Triazolopyrimidines as Tubulin Polymerization Inhibitors with Anticancer Activities” (Pharmaceuticals, 2022).

Experiments:
ATR = assay: Western blot analysis; format: cell-based, human; settings: HeLa, 24 h
Method: (§1) Hela cells treated with the test compounds were harvested by centrifugation and then lysed with 0.1% (v/v) Triton X-100 containing RNase A at 0 °C. The protein content of the solutions was measured and analyzed as described previously. The antibodies directed against cyclin B, cdc2 (Y15), ATR,Bcl-2, cleaved caspase-9 (D330) and actin were purchased from Cell Signaling. The membranes were visualized using ECL select (GE Healthcare, Uppsal, Sweden), and images were acquired using an Uvitec-Alliance imaging system.

cleaved caspase-9 (D330) = assay: Western blot analysis; format: cell-based, human; settings: HeLa, 24 h, 25 and 50 nM
Method: as §1

cyclin B = assay: Western blot analysis; format: cell-based, human; settings: HeLa, 24 h
Method: as §1

cdc2 (Y15) = assay: Western blot analysis; format: cell-based, human; settings: HeLa, 24 h
Method: as §1

Bcl-2 = assay: Western blot analysis; format: cell-based, human; settings: HeLa, 24 h
Method: as §1

Bovine brain tubulin = assay: Inhibition of [3H]colchicine binding to tubulin; settings: tubulin 0.5 µM, [3H]colchicine 5 µM, tested compound 5 µM
Method: Bovine brain tubulin was purified as described previously. To evaluate the effects of the compounds on tubulin assembly in vitro [80], varying concentrations were preincubated with 10 μM tubulin in 0.8 M monosodium glutamate (pH 6.6) at 30 °C and the reaction mixtures then cooled to 0 °C. After addition of GTP, the mixtures were transferred to 0 °C cuvettes in Beckman Coulter (Brea, CA, USA) DU-7400/DU-7500 recording spectrophotometers equipped with electronic temperature controllers and warmed to 30 °C, and the assembly of tubulin was observed turbidimetrically. […] Inhibition of colchicine binding to tubulin was measured as described before, except that the reaction mixtures contained 0.5 μM tubulin and 5 μM each of [^3H]colchicine and test compound. Only one DEAE-cellulose filter was used per sample, and filtration was by gravity.
Bovine brain tubulin (see ref. [79] for details of purification) was used to examine effects on tubulin polymerization and colchicine binding. Briefly, in the polymerization experiments, different compound concentrations were preincubated with 10 µM tubulin for 15 min at 30 °C and cooled on ice. After GTP was added to each reaction mixture, the samples were transferred to 0 °C cuvettes in recording spectrophotometers with electronic temperature controllers. The temperature was raised to 30 °C over about 30 s, and turbidity development was followed for 20 min at 350 nm. […] In the current studies, [^3H]colchicine (from American Radiolabeled Corp., St. Louis, MO) binding was measured after 10 min at 37 °C. Reaction mixtures contained 0.5 µM tubulin and 5.0 µM each of the [^3H]colchicine and the potential inhibitor, and a single DEAE-cellulose filter was used for each sample, with gravity filtration.

MDA-MB-231 = assay: In vitro cell growth inhibition, resazurin viability assay; format: cell-based, human
Method: (§2) All the cell lines used in this paper were of human origin and purchased from the American Type Culture Collection (ATCC, Manassas, VA, USA). Colon adenocarcinoma (HT-29), non-small cell lung carcinoma (A549), cervix carcinoma (HeLa) and breast adenocarcinoma (MDA-MB-231) cells were grown in RPMI (HT29) or DMEM (A549, HeLa, MDA-MB-231) medium (Gibco, Milano, Italy). Both media were supplemented with 115 units/mL of penicillin G (Gibco, Milano, Italy), 115 μg/mL of streptomycin (Invitrogen, Milano, Italy) and 10% fetal bovine serum (Invitrogen, Milano, Italy). All cell lines were grown at 37 °C in a humidified 5% CO2 atmosphere. The cells were grown in 2 mL of complete medium.
(§3) Stock solutions were prepared for each compound by dissolving in DMSO at the final concentration of 10 mM.
(§4) The cells were seeded in 96-well plates at the appropriate density for each cell line. The respective cell line densities used for the antiproliferative assay were HeLa and HT29 5000 cells/well, A549 4000 cells/well and MDA-MB-231 7000 cells/well. The total volume of medium was 100 µL. After 24 h, the cells were treated by performing serial 5-fold dilutions of the tested compounds starting from a concentration of 10 μM. All experimental conditions were tested in triplicate for statistical analysis. After 72 h of incubation, 10 μL of 100 μg/mL resazurin solution was added to each well and the plate was re-incubated for 3–4 h. The fluorescence of the wells in each plate was monitored using a Spark 10M spectrophotometer (Tecan Group Ltd., Mannedorf, Switzerland) with a 535 nm excitation wavelength and a 600 nm emission wavelength.

HT29 = assay: as above; format: cell-based, human
Method: as §2, §3, §4

A549 = assay: as above; format: cell-based, human
Method: as §2, §3, §4

HeLa = assay: as above; format: cell-based, human
Method: as §2, §3, §4

HeLa cells [1] = assay: Mitochondrial potential, JC-1 flow cytometry; format: cell-based, human; settings: 24 h treatment, increased further at 48 h
Method: The analysis of the mitochondrial potential was carried out by flow cytometric analysis. Briefly, the cells treated with the test compound were labeled with the JC-1 dye as previously described. The labeled cells were analyzed using the Coulter Cytomics FC500 (Beckman Coulter) in the FL1 and FL2 channel, respectively.

HeLa cells [2] = assay: Cell cycle analysis by flow cytometry (PI); format: cell-based, human
Method: For these experiments, HeLa cells were used, which were seeded in 6-well plates at a concentration of 5 × 10^5/well in a final volume of 2 mL culture medium. The cells were then treated with the test compounds for 24 h at the indicated concentrations. After this incubation period, the cells were detached with trypsin-EDTA and harvested by centrifugation. The pellet thus obtained was fixed in 70% ice-cold ethanol.
After this incubation period, the cells were detached with trypsin-EDTA and harvested by centrifugation. The pellet thus obtained was fixed in 70% ice-cold ethanol for at least 1 h. The cells thus fixed were treated with a 0.1% v/v solution of Triton_X-100 in phosphate buffered saline (PBS) containing RNAseA and propidium iodide (PI) at the final concentration of 0.02 mg/mL. The cells were incubated at room temperature for 30 min and then analyzed on a Cytomic FC500 flow cytometer (Beckman Coulter) in the FL3 channel. DNA histograms were analyzed using MultiCycle for Windows (Phoenix Flow Systems, San Diego, CA, USA).

COc1cc(-c2ccnc3nc(Nc4ccc(C)cc4)nn23)cc(OC)c1OC [Compound 3d, N-(p-Tolyl)-7-(3,4,5-trimethoxyphenyl)-[1,2,4]triazolo[1,5-a]pyrimidin-2-amine]
ATR phosphorylation (Ser428) (ATR): considerable increase in ATR phosphorylation (Ser428) | caspase-9 cleavage (cleaved caspase-9 (D330)): appearance of the cleaved fragment of caspase-9 | cyclin B expression (cyclin B): increase in cyclin B expression | cdc2 phosphorylation (Y15) (cdc2 (Y15)): significant reduction in cdc2 phosphorylation (Y15) | Bcl-2 expression (Bcl-2): reduction in Bcl-2 expression starting at 10 nM | Colchicine Binding % Inhibition ± SD (Bovine brain tubulin): 72 ± 5% | IC50 (MDA-MB-231; Homo sapiens, MDA-MB-231, 72 h, resazurin, mean ± SE): 0.43 ± 0.11 µM | fold less potent than CA-4 (MDA-MB-231; MDA-MB-231 cells): 100 fold | fold greater activity than CA-4 (HT29; HT-29 cells): 100 fold | IC50 (HT29; Homo sapiens, HT-29, 72 h, resazurin, mean ± SE): 0.03 ± 0.003 µM | fold more potent than CA-4 (A549; A549 cells): 4 fold | IC50 (A549; Homo sapiens, A549, 72 h, resazurin, mean ± SE): 0.043 ± 0.024 µM | fold less potent than CA-4 (HeLa; HeLa cells): 10 fold | IC50 (HeLa; Homo sapiens, 72 h, resazurin, mean ± SE): 0.038 ± 0.009 µM | mitochondrial depolarization (JC-1 monomers) (HeLa cells [1]): significant increase in the percentage of monomers | concentration at which increase in G2/M cells was evident (HeLa cells [2]; 24 h): 25 nM | effect on cell cycle (G2/M) (HeLa cells [2]; 24 h, 10, 25 or 50 nM): significant G2/M arrest in a concentration-dependent manner
